Test results reported in US9920075B2, “Triazolopyridine and triazolopyrimidine inhibitors of myeloperoxidase” (BRISTOL-MYERS SQUIBB COMPANY, priority 2014, dated 2018).
Several values for one entry are separate records, joined by “and”; a condition that tells them apart may be missing. Equal entries are not always repeated.

Experiments:
Assay type in all cases: biochemical
myeloperoxidase (MPO) [1] = biological target: T1, myeloperoxidase (MPO) (Homo sapiens, UniProt P05164); assay: MPO peroxidation assay (Amplex Red assay)
T1 sequence (P05164 49-745): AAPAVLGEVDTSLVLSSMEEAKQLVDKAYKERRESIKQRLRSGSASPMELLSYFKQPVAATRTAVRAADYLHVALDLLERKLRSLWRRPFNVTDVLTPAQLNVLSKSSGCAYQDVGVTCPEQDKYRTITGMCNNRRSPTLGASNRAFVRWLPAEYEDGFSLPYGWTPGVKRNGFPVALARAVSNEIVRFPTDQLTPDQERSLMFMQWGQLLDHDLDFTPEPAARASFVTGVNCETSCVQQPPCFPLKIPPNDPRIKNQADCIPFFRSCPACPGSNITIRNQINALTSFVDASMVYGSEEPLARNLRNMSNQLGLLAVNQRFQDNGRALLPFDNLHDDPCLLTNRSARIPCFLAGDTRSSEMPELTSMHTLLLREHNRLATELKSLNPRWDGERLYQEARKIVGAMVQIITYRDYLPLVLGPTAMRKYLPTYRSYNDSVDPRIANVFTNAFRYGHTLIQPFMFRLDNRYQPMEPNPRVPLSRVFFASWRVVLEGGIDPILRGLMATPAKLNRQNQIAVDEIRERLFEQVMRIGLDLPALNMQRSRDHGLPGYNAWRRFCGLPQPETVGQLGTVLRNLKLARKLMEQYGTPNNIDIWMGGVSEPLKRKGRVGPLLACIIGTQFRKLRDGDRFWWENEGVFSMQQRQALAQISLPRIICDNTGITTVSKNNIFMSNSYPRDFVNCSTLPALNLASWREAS
Method: MPO Peroxidation Assay (Amplex Red Assay)
MPO peroxidation activity was measured in 100 mM KPi (pH 7.4) by utilizing the non-fluorescent reagent Amplex Red (Invitrogen Cat. #A12222) which can be oxidized to the highly fluorescent resorufin. Amplex Red is oxidized by the peroxidase action of MPO to resorufin. […] Enzyme and compound were preincubated for ten minutes at room temperature.
After the ten minute preincubation, 25 μL of an Amplex Red mixture containing 200 μM Amplex Red and 10 mM H2O2 was added to the plate.
(§1) IC50 values were calculated by determining the slope of the linear portion of the kinetic trace (180-540 secs), and using that calculated slope to determine % inhibition occurring at each concentration of inhibitor using the following equation:
(§2) [formula] where A=minimal Y value (activity level of inhibited sample), B=maximal Y value (activity level of uninhibited sample), C=Log IC50, D=Hill Slope, x=concentration of inhibitor. MPO Chlorination Assay (APF Assay)

myeloperoxidase (MPO) [2] = biological target: T1, myeloperoxidase (MPO); assay: MPO chlorination assay (APF assay)
Method: as §2
MPO chlorination activity was measured in 100 mM KPi (pH 7.4) by utilizing the non-fluorescent reagent Aminophenyl fluorescein (APF, Invitrogen Cat. #A36003). APF is cleaved by (—OCl) to yield the fluorescent compound fluorescein. […] Enzyme, inhibitor, and chloride were preincubated for ten minutes at room temperature.
After the ten minute preincubation, 25 μL of an APF mixture containing […], 120 mM NaCl and 10 μM H2O2 was added to the plate using the internal dispensing system of a Hammatsu FDSS 6000. […] IC50 values for inhibitors were calculated by taking the slope of the linear portion of the kinetic measurement (20 seconds to ˜80-120 secs).
as §1
(§3) [formula] where A=minimal Y value (activity level of inhibited sample), B=maximal Y value (activity level of uninhibited sample), C=Log IC50, D=Hill Slope, x=concentration of inhibitor. EPX Bromination Assay

EPX = biological target: T2, EPX (Homo sapiens, UniProt P11678); assay: EPX bromination assay; conditions: EPX bromination, 100 mM KPi pH 7.4, ten minute preincubation; read-out: EPX IC50
T2 construct: purchased Lee Biosolutions 342-60
Method: as §3
EPX bromination activity was measured in 100 mM KPi (pH 7.4) by monitoring the H2O2 catalyzed formation of 3-bromo tyrosine from tyrosine and potassium bromide. […] Enzyme and compound were preincubated for ten minutes at room temperature.
The reaction was allowed to proceed for 15 minutes, at which time it was quenched with 10 μL of 20% TCA. The final concentrations of all components were 0.3 μM EPX, 100 μM tyrosine, […], 5 μM H2O2, 0.1% DMSO, 2.0% TCA.
[formula] where A=minimal Y value (activity level of inhibited sample), B=maximal Y value (activity level of uninhibited sample), C=Log IC50, D=Hill Slope, x=concentration of inhibitor.
The column was maintained at 60° C. Samples were eluted using a gradient of 0%-100% B over 2.5 minutes, followed by equilibration with 100% A for 1 minute where A consisted of 0.1% TFA and B consisted of 90% MeOH/0.1% TFA at a flow rate of 0.6 mL/min.

[3] = MPO peroxidation, 100 mM KPi pH 7.4, ten minute preincubation, read-out: Amplex Red Assay IC50 value
[4] = MPO chlorination, 100 mM KPi pH 7.4, ten minute preincubation, read-out: APF Assay IC50 value
[5] = MPO peroxidation (Amplex Red), ranges given, read-out: MPO peroxidation assay IC50 values (binned)

T2 sequence (P11678 251-715 limits assumed): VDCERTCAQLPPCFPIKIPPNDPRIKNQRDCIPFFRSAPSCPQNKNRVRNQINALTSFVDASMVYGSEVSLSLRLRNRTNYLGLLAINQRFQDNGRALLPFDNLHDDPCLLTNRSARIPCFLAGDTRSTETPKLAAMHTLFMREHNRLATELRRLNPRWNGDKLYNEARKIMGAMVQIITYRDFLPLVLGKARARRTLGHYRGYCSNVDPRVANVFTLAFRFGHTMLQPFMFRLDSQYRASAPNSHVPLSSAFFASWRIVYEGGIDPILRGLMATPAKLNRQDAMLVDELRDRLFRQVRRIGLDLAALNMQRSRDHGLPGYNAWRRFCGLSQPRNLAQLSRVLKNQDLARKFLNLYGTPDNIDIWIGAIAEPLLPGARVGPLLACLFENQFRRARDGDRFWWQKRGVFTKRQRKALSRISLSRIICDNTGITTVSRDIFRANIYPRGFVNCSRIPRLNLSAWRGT
T2 sequence (P11678 140-250 limits assumed): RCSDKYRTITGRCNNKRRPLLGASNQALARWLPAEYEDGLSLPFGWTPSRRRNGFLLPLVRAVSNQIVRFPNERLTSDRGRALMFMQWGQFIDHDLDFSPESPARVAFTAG

SMILES: CCn1nc(COc2cc(N)nc3[nH]nnc23)cc1C(F)(F)F [Example 6, 7-((1-Ethyl-5-(trifluoromethyl)-1H-pyrazol-3-yl)methoxy)-3H-[1,2,3]triazolo[4,5-b]pyridin-5-amine]
- IC50 (myeloperoxidase (MPO) [1]; [3]): 20 nM
- IC50 (myeloperoxidase (MPO) [2]; [4]): 130 nM
- IC50 (EPX): 70 nM

SMILES: Cc1nn(-c2cccc(F)c2)nc1COc1cc(N)nc2[nH]nnc12 [Example 12, 7-((2-(3-Fluorophenyl)-5-methyl-2H-1,2,3-triazol-4-yl)methoxy)-3H-[1,2,3]triazolo[4,5-b]pyridin-5-amine]
- IC50 (myeloperoxidase (MPO) [1]; [3]): 20 nM
- IC50 (myeloperoxidase (MPO) [2]; [4]): 80 nM

SMILES: COc1cccc(-n2nc(C)c(COc3cc(N)nc4[nH]nnc34)n2)c1 [Example 13, 7-((2-(3-Methoxyphenyl)-5-methyl-2H-1,2,3-triazol-4-yl)methoxy)-3H-[1,2,3]triazolo[4,5-b]pyridin-5-amine]
- IC50 (myeloperoxidase (MPO) [1]; [3]): 30 nM
- IC50 (myeloperoxidase (MPO) [2]; [4]): 100 nM

SMILES: Nc1cc(OCc2cc(-c3ccccc3)no2)c2nn[nH]c2n1 [Example 14, 7-((3-Phenylisoxazol-5-yl)methoxy)-3H-[1,2,3]triazolo[4,5-b]pyridin-5-amine]
- IC50 (myeloperoxidase (MPO) [1]; Amplex Red Assay IC50 value, MPO peroxidation, 100 mM KPi pH 7.4, ten minute preincubation): 120 nM
- IC50 (myeloperoxidase (MPO) [2]): 120 nM

SMILES: Nc1cc(OCc2cncn2Cc2ccccc2)c2nn[nH]c2n1 [Example 28, 7-((1-Benzyl-1H-imidazol-5-yl)methoxy)-3H-[1,2,3]triazolo[4,5-b]pyridin-5-amine]
- IC50 (myeloperoxidase (MPO) [1]; [3]): 2400 nM
- IC50 (myeloperoxidase (MPO) [2]; [4]): 1190 nM

SMILES: Nc1cc(OCC2COc3ccccc3O2)c2nn[nH]c2n1 (stereo not drawn) [Example 32, 7-((2,3-Dihydrobenzo[b][1,4]dioxin-2-yl)methoxy)-3H-[1,2,3]triazolo[4,5-b]pyridin-5-amine]
- IC50 (myeloperoxidase (MPO) [1]; [3]): 610 nM
- IC50 (myeloperoxidase (MPO) [2]; [4]): 320 nM

SMILES: Nc1cc(OCC2COc3ccccc3C2)c2nn[nH]c2n1 (stereo not drawn) [Example 34, 7-(Chroman-3-ylmethoxy)-3H-[1,2,3]triazolo[4,5-b]pyridin-5-amine]
- IC50 (myeloperoxidase (MPO) [1]; [3]): 1390 nM
- IC50 (myeloperoxidase (MPO) [2]; [4]): 790 nM

SMILES: COc1cc(-c2nc(COc3cc(N)nc4[nH]nnc34)c(C)o2)ccc1Cl [Example 43, 7-((2-(4-Chloro-3-methoxyphenyl)-5-methyloxazol-4-yl)methoxy)-3H-[1,2,3]triazolo[4,5-b]pyridin-5-amine]
- IC50 (myeloperoxidase (MPO) [1]; [3]): 760 nM
- IC50 (myeloperoxidase (MPO) [2]; [4]): 1520 nM

SMILES: Cc1oc(-c2ccc(S(C)(=O)=O)cc2)nc1CSc1cc(N)nc2[nH]nnc12 [Example 46, 7-((5-Methyl-2-(4-(methylsulfonyl)phenyl)oxazol-4-yl)methylthio)-3H-[1,2,3]triazolo[4,5-b]pyridin-5-amine]
- IC50 (myeloperoxidase (MPO) [1]; [3]): 90 nM
- IC50 (myeloperoxidase (MPO) [2]; [4]): 470 nM

SMILES: Nc1cc(OCc2nn(Cc3ccccc3)c3ccccc23)c2nn[nH]c2n1 [Example 53, 7-((1-Benzyl-1H-indazol-3-yl)methoxy)-3H-[1,2,3]triazolo[4,5-b]pyridin-5-amine]
- IC50 (myeloperoxidase (MPO) [1]; [3]): 80 nM
- IC50 (myeloperoxidase (MPO) [2]; [4]): 100 nM

SMILES: CCc1nn(-c2ccccc2)nc1COc1cc(N)nc2[nH]nnc12 [Example 57, 7-((5-Ethyl-2-phenyl-2H-1,2,3-triazol-4-yl)methoxy)-3H-[1,2,3]triazolo [4,5-b]pyridin-5-amine]
- IC50 (myeloperoxidase (MPO) [1]; [3]): 80 nM
- IC50 (myeloperoxidase (MPO) [2]; [4]): 320 nM

SMILES: Cc1nn(-c2ccc(N3CCNC(=O)C3)nc2)nc1COc1cc(N)nc2[nH]nnc12 [Example 61, 4-(5-(4-(((5-Amino-3H-[1,2,3]triazolo[4,5-b]pyridin-7-yl)oxy)methyl)-5-methyl-2H-1,2,3-triazol-2-yl)pyridin-2-yl)piperazin-2-one]
- IC50 (myeloperoxidase (MPO) [1]; [3]): 90 nM
- IC50 (myeloperoxidase (MPO) [2]; [4]): 910 nM

SMILES: Nc1cc(OCC2CCN(C3=NC=CCN3)CC2)c2nn[nH]c2n1 [Example 85, 7-((1-(1,6-Dihydropyrimidin-2-yl)piperidin-4-yl)methoxy)-3H-[1,2,3]triazolo[4,5-b]pyridin-5-amine]
- IC50 (myeloperoxidase (MPO) [1]; [3]): 1080 nM
- IC50 (myeloperoxidase (MPO) [2]; [4]): 640 nM

SMILES: CS(=O)(=O)N1CCCCC1COc1cc(N)nc2[nH]nnc12 (stereo not drawn) [Example 86, 7-((1-(Methylsulfonyl)piperidin-2-yl)methoxy)-3H-[1,2,3]triazolo[4,5-b]pyridin-5-amine]
- IC50 (myeloperoxidase (MPO) [1]; [3]): 2030 nM
- IC50 (myeloperoxidase (MPO) [2]; [4]): 1100 nM

SMILES: Nc1cc(OCc2cccnc2Cl)c2nn[nH]c2n1 [Example 90, 7-((2-Chloropyridin-3-yl)methoxy)-3H-[1,2,3]triazolo[4,5-b]pyridin-5-amine]
- IC50 (myeloperoxidase (MPO) [1]; [3]): 110 nM
- IC50 (myeloperoxidase (MPO) [2]; [4]): 50 nM

SMILES: Nc1nc(OCc2cccc3occc23)c2nn[nH]c2n1 [Example 112, 7-(Benzofuran-4-ylmethoxy)-3H-[1,2,3]triazolo[4,5-d]pyrimidin-5-amine]
- IC50 (myeloperoxidase (MPO) [1]; [5]): 60 to 150 nM

SMILES: Nc1nc(OCc2cccnc2)c2nn[nH]c2n1 [Example 113, 7-(pyridin-3-ylmethoxy)-3H-[1,2,3] triazolo[4,5-d]pyrimidin-5-amine]
- IC50 (myeloperoxidase (MPO) [1]; [5]): 60 to 150 nM

SMILES: Nc1nc(OCc2cccc3cccnc23)c2nn[nH]c2n1 [Example 114, 7-(quinolin-8-ylmethoxy)-3H-[1,2,3] triazolo[4,5-d]pyrimidin-5-amine]
- IC50 (myeloperoxidase (MPO) [1]; [5]): 60 to 150 nM

SMILES: Nc1nc(OCc2ccc3ncccc3c2)c2nn[nH]c2n1 [Example 115, 7-(quinolin-6-ylmethoxy)-3H-[1,2,3] triazolo[4,5-d]pyrimidin-5-amine]
- IC50 (myeloperoxidase (MPO) [1]; [5]): 60 to 150 nM

SMILES: Nc1nc(OCc2cccc3ncccc23)c2nn[nH]c2n1 [Example 116, 7-(quinolin-5-ylmethoxy)-3H-[1,2,3] triazolo[4,5-d]pyrimidin-5-amine]
- IC50 (myeloperoxidase (MPO) [1]; [5]): 60 to 150 nM

SMILES: COc1ccc(-c2cncc(COc3nc(N)nc4[nH]nnc34)c2)cc1 [Example 118, 7-((5-(4-methoxyphenyl)pyridin-3-yl)methoxy)-3H-[1,2,3]triazolo[4,5-d] pyrimidin-5-amine]
- IC50 (myeloperoxidase (MPO) [1]; [5]): 60 to 150 nM

SMILES: Nc1nc(OCc2cc(Cl)nc(Cl)c2)c2nn[nH]c2n1 [Example 119, 7-((2,6-dichloropyridin-4-yl)methoxy)-3H-[1,2,3]triazolo[4,5-d]pyrimidin-5-amine]
- IC50 (myeloperoxidase (MPO) [1]; [5]): 60 to 150 nM

SMILES: Nc1nc(OCc2ccc(Cl)nc2)c2nn[nH]c2n1 [Example 120, 7-((6-chloropyridin-3-yl)methoxy)-3H-[1,2,3]triazolo[4,5-d]pyrimidin-5-amine]
- IC50 (myeloperoxidase (MPO) [1]; [5]): 150 to 1000 nM

SMILES: Nc1nc(OCc2cn(-c3ccccc3)nn2)c2nn[nH]c2n1 [Example 121, 7-((1-phenyl-1H-1,2,3-triazol-4-yl)methoxy)-3H-[1,2,3]triazolo[4,5-d] pyrimidin-5-amine]
- IC50 (myeloperoxidase (MPO) [1]; [5]): 60 to 150 nM

SMILES: Nc1nc(OCc2ccc(Oc3ccccc3)nc2)c2nn[nH]c2n1 [Example 122, 7-((6-phenoxypyridin-3-yl)methoxy)-3H-[1,2,3]triazolo[4,5-d]pyrimidin-5-amine]
- IC50 (myeloperoxidase (MPO) [1]; [5]): 60 to 150 nM

SMILES: Nc1nc(OCc2csc(-c3cccc(Cl)c3Cl)n2)c2nn[nH]c2n1 [Example 124, 7-((2-(2,3-dichlorophenyl)thiazol-4-yl)methoxy)-3H-[1,2,3]triazolo[4,5-d] pyrimidin-5-amine]
- IC50 (myeloperoxidase (MPO) [1]; [5]): 60 to 150 nM and 150 to 1000 nM
